Experimental data: patent publication US20260166045A1, “COMBINATION THERAPY COMPRISING GSPT1-DIRECTED MOLECULAR GLUE DEGRADERS AND PI3K/AKT/mTOR PATHWAY INHIBITORS” (Monte Rosa Therapeutics, Inc., priority 2022, published 2026)
Several values for one entry are separate records, joined by “and”; a condition that tells them apart may be missing. Identical values can stand only once.

Key:
Assay in all cases: CellTiter-Glo 2.0 cell viability, 7x7 combination dose response matrix, synergy scoring
Type in all cases: cell-based
MDA-MB-157 cell line = conditions: first compound 0.41-100 nM
Text: (§1) A study was undertaken to determine whether the combination of a GSPT1-directed MGD and an inhibitor of the PI3K/AKT/mTOR pathway could be effective in killing cancer cells and whether certain combination could elicit a greater than additive effect on cell killing.
(§2) FIG. 1 is a flow diagram of the method used to assess cancer cell killing by a combination of a GSPT1-directed MGD and an inhibitor of the PI3K/AKT/mTOR pathway. Certain of the materials and equipment used in the studies are presented in Table 3 and the cell lines used are presented in Table 4.
(§3) All assays were run in triplicate. Each 384-well plate accommodated six 7×7 dose response matrices (FIG. 2). All compound handling was performed using an Echo 650 Series Acoustic Liquid Handler, which enables fully automated, precise, contact-free acoustic transfer in volumes as low as 2.5 nL.
(§4) The following protocol was used for cell plating: • 1. Warm media to room temperature or 37° C. • 2. Prepare complete phenol-free media by adding 10% FBS+1% Pen-Strep to RPMI 1640 Medium or DMEM. • 3. Aspirate media from T175 tissue culture flask and rinse with 10 ml PBS. • 4. Aspirate PBS and add 2 mL 0.25% trypsin. Incubate the flask at 37° C. for 5 min or until cells are detached. • 5. Add 10 mL complete media to the flask to neutralize the trypsin, then collect cells in a 50 mL conical tube. • 6. Centrifuge cells at 300 g for 5 min. Aspirate media and suspend cell pellet in fresh media. Use cell strainer to strain cells into a new 50 mL conical tube. • 7. […] Mix 100 uL cell suspension with 100 uL trypan blue (1:1) and pipette 20 μL of the mixture into each of 2 counting chambers on a slide. Insert slide. • b. Adjust focus and record the live cell count. At least 2 independent measurements should be taken. […] Cell viability should be greater than 90%. […] Dilute cell suspension to the desired concentration (20000 cells/mL) using complete phenol-free media. Prepare 10 mL cell suspension per plate+an extra 10 mL for priming the liquid handler. • 9. Dispense cells into 384-well plates using the liquid handler at 25 uL/well (500 cells/well). 3 plates should be prepared per compound plate to be treated. • 10. Cells should be dispensed into columns 1-23 only. Media only (no cells) should be dispensed into column 24. • 11. Allow plates to rest at RT for 30 minutes before transferring to the incubator. Incubate cells overnight at 37° C., 95% humidity, and 5% CO2.
(§5) Compound plates were prepared as follows using an Echo 650 Series Acoustic Liquid Handler. • 1. A compound plate containing 7-point dose responses of each compound to be treated is first prepared from stock compounds. • 2. The cell plates are treated with compounds according to the following maps, where the first compound is added across all six 7 by 7 dose response matrices, and its concentration varies by row (FIG. 2; top matrix), whereas the second compound varies for each dose response matrix, and its concentration varies by column (FIG. 2; bottom matrix). Each cell plate receives one Compound A and six different Compound Bs. • 3. To prepare a compound plate, 384-well PP plate with stock compounds (highest concentration) is prepared. Compounds are diluted 1:1000 in the cell plates, e.g. 10 mM on compound plate will be 10 uM on cell plate. A 384-well LDV plate with pre-determined volumes of DMSO is prepared. Echo is used to dilute stock compounds from PP plate into LDV plate to prepare 7-point dose responses.
(§6) Compounds were added to the cells and cell viability was measured after 72 hour incubation using CellTiter-Glo 2.0 Cell Viability Assay (Promega): • 1. For a compound addition, Echo is used to transfer 25 nL from the compound plate wells to the cell plates according to the plate maps shown in FIG. 2. Cell plates are treated in triplicate. Each well of the cell plate has 25 uL media (1:1000 dilution). Incubate cells post-treatment at 37° C., 95% humidity, and 5% CO2 for 72 hrs (step 106). • 2. […]

ABC-1 cell line = system: ABC-1 cell line
Text: as §1, §2, §3, §4, §5, §6

NCI-H1155 cell line = conditions: first compound 0.21-100 nM
Text: as §1, §2, §3, §4, §5, §6

MCF7 cell line = system: MCF7 cell line
Text: as §1, §2, §3, §4, §5, §6

CAL51 mutant cell line = conditions: first compound 0.41-100 nM
Text: as §1, §2, §3, §4, §5, §6

[1] = combined with Alpelisib 41-10000 nM
[2] = combined with Capivasertib 41-10000 nM
[3] = combined with Everolimus 41-10000 nM
[4] = combined with GNE-477 41-10000 nM
[5] = combined with KU-0063794 41-10000 nM
[6] = combined with M2698 41-10000 nM
[7] = ABC-1, combined with Alpelisib 21-10000 nM, first compound 0.21-100 nM
[8] = ABC-1, combined with Capivasertib 21-10000 nM, first compound 0.21-100 nM
[9] = ABC-1, combined with Everolimus 2.1-1000 nM, first compound 0.21-100 nM
[10] = ABC-1, combined with GNE-477 21-10000 nM, first compound 0.21-100 nM
[11] = ABC-1, combined with KU-0063794 21-10000 nM, first compound 0.21-100 nM
[12] = ABC-1, combined with M2698 21-10000 nM, first compound 0.21-100 nM
[13] = combined with Alpelisib 21-10000 nM
[14] = combined with Capivasertib 21-10000 nM
[15] = combined with Everolimus 2.1-1000 nM
[16] = combined with GNE-477 21-10000 nM
[17] = combined with KU-0063794 21-10000 nM
[18] = combined with M2698 21-10000 nM
[19] = MCF7, combined with Alpelisib 41-10000 nM, first compound 0.41-33.33 nM
[20] = MCF7, combined with Capivasertib 41-10000 nM, first compound 0.41-100 nM
[21] = MCF7, combined with Everolimus 41-10000 nM, first compound 0.41-100 nM
[22] = MCF7, combined with GNE-477 41-10000 nM, first compound 0.41-100 nM
[23] = MCF7, combined with HS173 41-10000 nM, first compound 0.41-100 nM
[24] = MCF7, combined with KU-0063794 41-10000 nM, first compound 0.41-100 nM
[25] = MCF7, combined with M2698 41-10000 nM, first compound 0.41-100 nM
[26] = MCF7, combined with Serabelisib 41-10000 nM, first compound 0.41-100 nM
[27] = combined with Everolimus 4.1-1000 nM

Question: What does the source list for `Cc1ccc(NC(=O)OCc2ccc3c(c2)C(=O)N(C2CCC(=O)NC2=O)C3)cc1Cl` (stereo not shown) [Compound 1-6, [2-(2,6-dioxopiperidin-3-yl)-3-oxo-2,3-dihydro-1H-isoindol-5-yl]methyl N-(3-chloro-4-methylphenyl)carbamate]?
Answer: Mean Bliss synergy score (MDA-MB-157 cell line; [1]): 1.84; Mean Loewe synergy score (MDA-MB-157 cell line; [1]): 3.29; Mean Bliss synergy score (MDA-MB-157 cell line; [2]): 6.73; Mean Loewe synergy score (MDA-MB-157 cell line; [2]): 5.04; Mean Bliss synergy score (MDA-MB-157 cell line; [3]): 4.15; Mean Loewe synergy score (MDA-MB-157 cell line; [3]): 9.01; Mean Bliss synergy score (MDA-MB-157 cell line; [4]): 0.86; Mean Loewe synergy score (MDA-MB-157 cell line; [4]): 4.66; Mean Bliss synergy score (MDA-MB-157 cell line; [5]): 1.22; Mean Loewe synergy score (MDA-MB-157 cell line; [5]): 5.42; Mean Loewe synergy score (MDA-MB-157 cell line; [6]): 5.62 and 4.44; Mean Bliss synergy score (ABC-1 cell line; [7]): 20.25; Mean Loewe synergy score (ABC-1 cell line; [7]): 11.94; Mean Bliss synergy score (ABC-1 cell line; [8]): 33.20; Mean Loewe synergy score (ABC-1 cell line; [8]): 16.0; Mean Bliss synergy score (ABC-1 cell line; [9]): 26.31; Mean Loewe synergy score (ABC-1 cell line; [9]): 19.39; Mean Bliss synergy score (ABC-1 cell line; [10]): 20.34; Mean Loewe synergy score (ABC-1 cell line; [10]): 7.13; Mean Bliss synergy score (ABC-1 cell line; [11]): 19.44; Mean Loewe synergy score (ABC-1 cell line; [11]): 7.24; Mean Bliss synergy score (ABC-1 cell line; [12]): 17.02; Mean Loewe synergy score (ABC-1 cell line; [12]): 8.75; Mean Bliss synergy score (ABC-1 cell line; combined with Everolimus (2.1 nM to 1 uM), ABC-1 cell line, mean across dose response matrix, 72 hrs): 26.31; Mean Bliss synergy score (NCI-H1155 cell line; [13]): 5.23; Mean Loewe synergy score (NCI-H1155 cell line; [13]): 2.10; Mean Bliss synergy score (NCI-H1155 cell line; [14]): 5.58; Mean Loewe synergy score (NCI-H1155 cell line; [14]): 4.36; Mean Bliss synergy score (NCI-H1155 cell line; [15]): −1.66; Mean Loewe synergy score (NCI-H1155 cell line; [15]): 6.77; Mean Bliss synergy score (NCI-H1155 cell line; [16]): 3.25; Mean Loewe synergy score (NCI-H1155 cell line; [16]): 3.14; Mean Bliss synergy score (NCI-H1155 cell line; [17]): 3.66; Mean Loewe synergy score (NCI-H1155 cell line; [17]): 2.43; Mean Bliss synergy score (NCI-H1155 cell line; [18]): 2.04; Mean Loewe synergy score (NCI-H1155 cell line; [18]): 4.27; Mean Bliss synergy score (MCF7 cell line; [19]): 3.23; Mean Loewe synergy score (MCF7 cell line; [19]): 9.38; Mean Loewe synergy score (MCF7 cell line; MCF7, combined with Alpelisib 41-10000 nM, first compound 0.41-100 nM): 10.18 and 8.52; Mean Bliss synergy score (MCF7 cell line; [20]): 14.01 and 11.86; Mean Loewe synergy score (MCF7 cell line; [20]): 12.75 and 11.61; Mean Bliss synergy score (MCF7 cell line; [21]): 10.05; Mean Loewe synergy score (MCF7 cell line; [21]): 17.80; Mean Bliss synergy score (MCF7 cell line; [22]): 0.14; Mean Loewe synergy score (MCF7 cell line; [22]): 6.12; Mean Bliss synergy score (MCF7 cell line; [23]): 0.74; Mean Loewe synergy score (MCF7 cell line; [23]): 3.72; Mean Bliss synergy score (MCF7 cell line; [24]): 5.02; Mean Loewe synergy score (MCF7 cell line; [24]): 9.44; Mean Bliss synergy score (MCF7 cell line; [25]): 2.92 and 3.60; Mean Loewe synergy score (MCF7 cell line; [25]): 10.25 and 9.07; Mean Bliss synergy score (MCF7 cell line; [26]): 4.69; Mean Loewe synergy score (MCF7 cell line; [26]): 4.49; Mean Loewe synergy score (MCF7 cell line; combined with Capivasertib, MCF7 cell line (printed in Example 5, lung cancer cell lines), mean across dose response matrix, 72 hrs): 16.02; Mean Loewe synergy score (MCF7 cell line; combined with KU-0063794 (41 nM to 10 uM), MCF7 cell line, mean across dose response matrix, 72 hrs): 9.44; Mean Bliss synergy score (CAL51 mutant cell line; [1]): −0.63; Mean Loewe synergy score (CAL51 mutant cell line; [1]): −1.04; Mean Bliss synergy score (CAL51 mutant cell line; [2]): 0.95; Mean Loewe synergy score (CAL51 mutant cell line; [2]): −0.06; Mean Bliss synergy score (CAL51 mutant cell line; [27]): −1.53; Mean Loewe synergy score (CAL51 mutant cell line; [27]): −0.66; Mean Bliss synergy score (CAL51 mutant cell line; [4]): −1.35; Mean Loewe synergy score (CAL51 mutant cell line; [4]): −2.34; Mean Bliss synergy score (CAL51 mutant cell line; [5]): −1.01; Mean Loewe synergy score (CAL51 mutant cell line; [5]): −0.85; Mean Bliss synergy score (CAL51 mutant cell line; [6]): 0.82; Mean Loewe synergy score (CAL51 mutant cell line; [6]): −0.62
